Assay results published in patent US20110150772A1, “MODULATORS OF CARNITINE OCTANOYLTRANSFERASE IN THE TREATMENT OF ACNE, OF SEBORRHOEIC DERMATITIS OR OF HYPERSEBORRHOEA” (GALDERMA RESEARCH & DEVELOPMENT, priority 2008, published 2011).

Assays:
[1] = test system: CROT (carnitine O-octanoyltransferase) gene expression; assay: Expression of CROT in Fuzzy rat epidermal split after 8 days of topical treatment, Affymetrix transcriptome analysis; type: in vivo; conditions: female Fuzzy rats, topical 1% once a day for 8 days, Affymetrix 1368426_at, control condition 601
Protocol: Fuzzy rat epidermal split expression data
The studies are carried out in female Fuzzy rats (Hsd: Fuzzy-fz) ten weeks old at the beginning of the study. The animals are treated at a dose of 1% (PPARg agonist rosiglitazone in solution in acetone) once a day for 8 days. Two hours after the final treatment, the animals are sacrificed by euthanasia and the skin on the back is removed. After incubation in dispase, the epidermis carrying the sebaceous glands is detached from the dermis (epidermal split). After grinding of the samples, the mRNA is prepared using Qiagen columns, in accordance with the supplier's instructions. The material thus prepared is subjected to large-scale transcriptome analysis on an Affymetrix platform. The data are subsequently standardized and, after statistical analysis, the results produced are expressed in arbitrary expression units (see below) accompanied, for each piece of data, by a statistical value for presence of the transcript (presence=1; absence=0).
Table 2: Measurement of the Expression of CROT in an Epidermal Split after 8 Days of Topical Treatment of FUZZY Rat Females with a PPARγ Agonist (Rosiglitazone) at 1%

CROT gene expression = assay: Expression of CROT in rat epidermal split containing sebaceous glands after topical PPARgamma agonist, real-time PCR; type: in vivo; conditions: topical 1% in acetone, female Fuzzy rats, standardized to 18S, versus carrier group; for CROT Relative induction - Kinetics (Hours) 0: 0 hours; for CROT Relative induction - Kinetics (Hours) 8: 8 hours; for CROT Relative induction - Kinetics (Hours) 24: 24 hours; for CROT Relative induction - Kinetics (Hours) 48: 48 hours; for CROT Relative induction - Kinetics (Hours) 96: 96 hours
From the text: Animals: Species: rat • Strain: Ico: Hsd: FUZZY-fz • Gender: female • Age: 10 weeks
Number per batch: 40 (8 animals per group)
Treatment: Route of administration: topical • Compound/batch: PPARgamma agonists:
A: 5-{4-[2-(methylpyridin-2-ylamino)ethoxy]-benzyl}thiazolidine-2,4-dione
B: (2-methoxyethoxymethoxy)naphthalene-2-carboxylic acid [4′-(2,4-dioxothiazolidin-5-ylmethyl)biphenyl-3-ylmethyl]methylamide or rosiglitazone
C: (S)-2-ethoxy-3-{4-[6-(3-heptyl-1-methyl-ureido)pyridin-2-yl]phenyl}propionic acid • Doses: 1% • Carrier: acetone (001) • Duration 96 hours
Method of evaluation: The animals are weighed at the beginning and at the end of the study. Skin biopsies are taken (6 samples of skin excised per rat) in order to analyse the expression of the genes (RNA extraction, reverse transcriptase and real-time PCR). The samples are stored overnight at 4° C. before incubation in 1M sodium bromide (NaBr) for 2 hours at 37° C. After incubation, the samples are separated into epidermis or dermis. The epidermal samples are stored at […]. Under these conditions, the sebaceous glands are in the epidermal split. PCRs are carried out, beginning with the CNAs originating from the epidermal splits containing sebaceous glands from control rats or rats treated with a PPARγ agonist: the mRNA is extracted using a column and quantified. The quality of the mRNAs is measured and is represented by the 18S/28S ratio. The results are standardized with respect to 18S, expressed as relative induction versus untreated animals (carrier group). The statistical analysis is obtained using internal software based on a modified Monte Carlo statistical analysis.

SMILES | Expression after treatment with 1% rosiglitazone [1] | CROT Relative induction - Kinetics (Hours) 0 (CROT gene expression) | CROT Relative induction - Kinetics (Hours) 8 (CROT gene expression) | CROT Relative induction - Kinetics (Hours) 24 (CROT gene expression) | CROT Relative induction - Kinetics (Hours) 48 (CROT gene expression) | CROT Relative induction - Kinetics (Hours) 96 (CROT gene expression)
CN(CCOc1ccc(CC2SC(=O)NC2=O)cc1)c1ccccn1 (centres unmarked) [rosiglitazone] | 742 arbitrary expression units | – | – | – | – | –
CCCCCCCNC(=O)N(C)c1cccc(-c2ccc(C[C@H](OCC)C(=O)O)cc2)n1 [C, (S)-2-ethoxy-3-{4-[6-(3-heptyl-1-methyl-ureido)pyridin-2-yl]phenyl}propionic acid] | – | 1 | 0.40 | 0.52 | 0.36 | 0.20
CN(CCOc1ccc(CC2SC(=O)NC2=O)cc1)c1ccccn1 (centres unmarked) [A, 5-{4-[2-(methylpyridin-2-ylamino)ethoxy]-benzyl}thiazolidine-2,4-dione] | – | 1 | 2.24 | 2.16 | 1.54 | 0.94
